Consider 2 compounds from patent US10500202B2, “Pharmaceutical formulation containing tadalafil” (Druggability Technologies IP Holdco Limited, priority 2016, dated 2019).

As a reminder, the Papp is the rate of passage across a membrane or cell layer, normalised by area and donor concentration. A lower Papp goes with slow passage. Broadly, the Cmax is the peak of the concentration-time curve.

The conditions of series [1]: cited from earlier work.
The nature of another series: PAMPA permeability. Type of series: in vitro ADME. Here is the method: PAMPA permeability of the selected compositions was measured in order to select the pharmaceutical Tadalafil compositions having the best in-vitro performance (FIG. 2). PAMPA permeability measurements were performed as described by M. Kansi et al. (Journal of medicinal chemistry, 41, (1998) pp 1007) with modifications based on S. Bendels et al (Pharmaceutical research, 23 (2006) pp 2525). Permeability was measured in a 96-well plate assay across an artificial membrane composed of dodecane with 20% soy lecithin supported by a PVDF membrane (Millipore, USA). The receiver compartment was phosphate buffered saline (pH 7.0) supplemented with 1% sodium dodecyl sulfate. The assay was performed at room temperature; incubation time was 4 hours in ultrapurified water or 10-20 and 30 minutes in simulates saliva, respectively. The concentration in the receiver compartment was determined by UV-VIS spectrophotometry (Thermo Scientific Genesys S10).
PAMPA permeabilities of Tadalafil pharmaceutical compositions in water (H2O), FaSSIF (Fa) and FeSSIF (Fe) media were above 7.6×10^−6 cm/s, 7.2×10^−6 cm/s and 4.3×10^−6 cm/s, respectively, while it was 0.6×10^−6 cm/s, 0.6×10^−6 cm/s and 0.8*10^−6 cm/s in water, FaSSIF and FeSSIF media for the unformulated, crystalline reference. PAMPA permeability of Cialis® in water, FaSSIF and FeSSIF media was above 0.9×10^−6 cm/s, 0.8×10^−6 cm/s and 1.1×10^−6 cm/s, respectively.
PAMPA permeability of the solid Tadalafil pharmaceutical compositions was used to monitor the physical stability of the pharmaceutical formulation. PAMPA permeability was measured after storage at different conditions.
On the technique in general: In PAMPA a lipid-coated filter parts donor from acceptor wells.

For series [2] the following is noted: 10 mg/kg, beagle dog, cited from earlier work.
The conditions of series [3]: cited from earlier work. The source holds these as a separate data set.

Structures are written as SMILES. Read-outs that look alike come from different tables or passages of the source. A value given as a limit tells only on which side of the number the result lay.

Regarding `Cc1cccc(O)c1O` [Methylcatechol], the “Methylcatechol concentrations relative to glucuronide concentrations” value in series [1] (circulating metabolites of Tadalafil) is listed as “less than 10%”.

With `CN1CC(=O)N2[C@H](c3ccc4c(c3)OCO4)c3[nH]c4ccccc4c3C[C@@H]2C1=O` [Tadalafil], in the series “PAMPA permeability” (pH 7, FaSSIF), the Papp worked out at 0.6 ×10⁻⁶ cm/s. Also, the Papp in the series “PAMPA permeability” (pH 7, FeSSIF) came out at 0.8 ×10⁻⁶ cm/s. In addition, the apparent permeability (Papp) at 4 h in the series “PAMPA permeability” (pH 7, Water) is 0.6 ×10⁻⁶ cm/s. Also, the “Estimated F” value in series [2] (iv, published (reference)) is on record as 100%. In series [2] (iv, published), the AUC24 was 22894 ng·h/mL and the Cmax is 3663 ng/mL. In addition, in series [2] (oral, published), the AUC24 was 4109 ± 3141 ng·h/mL, the Cmax is 526 ± 281 ng/mL, the “Estimated F” value was 18% and the tmax is reported as 3 h. Further, the “Exposure (AUC) versus dose” value in series [1] (dose range of 2.5 to 20 mg, healthy subjects) is reported as “increases proportionally with dose”. Also, in series [1] (healthy subjects), the “Fraction of administered dose in semen” value is given as “Less than 0.0005%”, the Mean oral clearance is 2.5 L/h and the Mean terminal half-life is 17.5 h. Besides, in series [1] (once-daily dosing), the “Steady-state exposure relative to a single dose” value is reported as “approximately 1.6 fold” and the “Time to steady-state plasma concentrations” value is on record as at most 5 days. Further, the “Mean apparent volume of distribution” value in series [1] (oral administration) is listed as “approximately 63 L”. Besides, the “Effect of food on rate and extent of absorption” value in series [1] (oral) is recorded as “not influenced by food”. Also, in series [1] (predominantly as metabolites), the “Excretion in the feces” value was “approximately 61 % of the dose” and the “Excretion in the urine” value was “approximately 36 % of the dose”. In addition, the tmax values in series [1] (range) was 0.5 to 6 h. In addition, the “Fraction in plasma bound to proteins” value in series [1] (therapeutic concentrations) is on record as 94%. The Solubility entry in series [3] (ethanol) was “very slightly soluble”. Also, the Solubility result in series [3] (water) was “practically insoluble”.
